In US20020197700A1, “Receptor of the EDb-fibronectin domains” (Schering AG, priority 2000, published 2002):
Entries after “also recorded” stand apart in the source; their conditions may differ. Values belong to the substance of their own block, whether it stands above or below them.

What was measured:
[1] = system: endothelial cells; assay: adhesion test to ED-B-coated plates after pre-incubation of the cells with synthetic ED-B peptides; format: cell-based; details: cells pre-incubated with 250 μM peptide; A595
Description: Bowls of a 96-bowl plate (Nunc) are covered with protein for one hour at 37° C. With small proteins (<20 kDa) or peptides, it is recommended to allow the latter to dry on the plate (overnight without a cover under the sterile bank). The bowls are then saturated with 1% BSA for 1 hour at 37° C. Cells are dissolved in 1×trypsin, washed with 2% serum to inactivate the trypsin, and resuspended in medium. If antibodies or peptides are to be tested, the cells are pre-incubated in suspension with the latter for 30 minutes at 37° C. 10^4 cells per bowl (96-bowl plate) are incubated in a volume of 50-100 μl for 1 hour at 37° C. The supernatant is carefully poured off, the plate can be left inverted to drain on a paper towel for one minute and attached cells are stained with crystal violet/glutaric aldehyde for 15 minutes and attached. The bowls are washed three times with PBS, and the cells are then lysed by adding 2% SDS (15 minutes in the shaker). The absorption at 595 nm is measured. After washing three times with water, the cells, if desired, can be stained again.
The adherence was determined by the determination of the extinction at 595 nm (A595). The peptide designations that are applied in the figure are explained in FIG. 6. In this case, peptide sequence No. 043 corresponds to the sequence that is represented in SEQ ID NO: 1, peptide sequence No. 553 corresponds to SEQ ID NO: 2, peptide sequence No. 038 corresponds to SEQ ID NO: 3. A higher A595 value corresponds to a non-inhibited adherence, while a lower A595 value corresponds to an inhibition of the adherence by the corresponding peptide.
The method described for FIG. 4 was followed.

[2] = system: HUVEC (Human Umbilical Vein Endothelial Cells)-spheroids; assay: splintering test (tube formation test) of endothelial cell spheroids in collagen; format: cell-based; details: for induction of capillary-like structures (tube formation); penetration of endothelial cells in collagen gels: over basal bFGF-induced penetration
Description: For the splintering test (tube formation test), the following experimental method was used:
Medium: MCDB 131, glutamine, Pen/Strep, amphotericin (0.25 μg/ml), heparin (20 μg/ml), heat-inactivated FCS (10%)
Growth medium: Medium with 2 ng/ml of bFGF and 10 ng/ml of VEGF
Endothelial cells are dissolved with trypsin/EDTA and diluted with 5000 cells/ml in medium with 0.24% methyl cellulose. 200 μl (1000 cells) each are added to bowls of a Greiner plate and incubated overnight. Round cell clusters (spheroids) are harvested with a 1 ml pipette with beveled tips and centrifuged off. Spheroids are resuspended in 1.2% methyl cellulose/FCS and mixed with neutralized collagen gel. EDb and bFGF were co-polymerized.
This peptide thus has a stimulating effect on the penetration of endothelial cells in collagen gels. This peptide therefore corresponds to the binding region of EDb and stimulates, analogously to EDb itself, the penetration of endothelial cells in the collagen.
The method described for FIG. 3 was followed.

[3] = system: stromal cells (SC); assay: proliferation assay (MTS) of stromal cells; format: cell-based, human; details: SC/gelatin; bFGF+ED-B; 3 days
Description: (§1) 1000 cells per bowl were incubated in 96-bowl plates. Soluble ED-B (10 μg/l) was added to the medium during the proliferation assay. After three days, the cell count was determined with the MTS assay. The proliferation of cells was induced by a basic […] growth factor (bFGF). […] In the case of human stromal cells on gelatin (SC/gelatin), even in the absence of bFGF proliferation occurred that considerably exceeded that of human endothelial cells.
(§2) For the proliferation assay, the following experimental method was followed:
(§3) Material: 96-bowl plate (flat-bottomed), Nunc
(§4) Medium: MCDB 131, Pen/Strep, amphotericin (0.25 μg/ml), heparin (20 μg/ml), heat-inactivated FCS (5%)
Cells, 500-1000 per bowl (96-bowl plate) in 100 μl, are cultivated for 3 days in a medium with bFGF (1-3 ng/ml) or VEGF (30-50 ng/ml). The exact amount should be determined for each batch by titration: the minimum concentration that reaches the maximum proliferation stimulation is optimal. A synchronization of the cells before the experiment is not necessary, but can be done. After 3 days, the cell count is determined with the MTS kit (Promega) according to manufacturer's information. It is recommended to measure the absorption at several points to obtain a maximum absorption in the linear range (0.5; 1; 2; 4 hours). […]

[4] = system: endothelial cells (EC); assay: proliferation assay (MTS) of endothelial cells; format: cell-based; details: soluble ED-B 10 μg/l, 3 days; for action on human endothelial cell proliferation: bFGF-induced
Description: as §1, §2, §3, §4
Cells, 500-1000 per bowl (96-bowl plate) in 100 μl, are cultivated for 3 days in a medium with bFGF (1-3 ng/ml) or VEGF (30-50 ng/ml). The exact amount should be determined for each batch by titration: the minimum concentration that reaches the maximum proliferation stimulation is optimal. A synchronization of the cells before the experiment is not necessary, but can be done. After 3 days, the cell count is determined with the MTS kit (Promega) according to manufacturer's information. It is recommended to measure the absorption at several points to obtain a maximum absorption in the linear range (0.5; 1; 2; 4 hours).
Negative control, no mitogen (no proliferation) (−bFGF/VEGF) Positive control, with mitogen (maximum stimulation) (+bFGF/VEGF)

[5] = system: endothelial cells; assay: adhesion test of endothelial cells to coated microtiter-bowl plates; format: cell-based; details: plates coated with 0-40 μg/ml ED-B; 1 hour; crystal violet, A595
Description: As a negative control, bowls were used that were coated with 1 mg/ml of BSA (bovine serum albumin); the adhesion to BSA (<10%) was subtracted.
The adherence was quantified by staining with crystal violet, followed by a lysis with SDS. The quantification was carried out by measuring the extinction at 595 nm. A line drawn horizontally in the figure at A595 nm≈1.06 indicates the 100% adhesion to plasma-fibronectin.
For the adherence/adhesion test, the following experimental method was used:
Medium: MCDB 131, Pen/Strep, amphotericin (0.25 μg/ml), heparin (20 μg/ml), 0.1% BSA (Sigma, ethanol-precipitated)
0.1% crystal violet, 2% glutaric aldehyde in PBS, sterilized by filtration 2% SDS
Bowls of a 96-bowl plate (Nunc) are covered with protein for one hour at 37° C. With small proteins (<20 kDa) or peptides, it is recommended to allow the latter to dry on the plate (overnight without a cover under the sterile bank). The bowls are then saturated with 1% BSA for 1 hour at 37° C. Cells are dissolved in 1×trypsin, washed with 2% serum to inactivate the trypsin, and resuspended in medium. If antibodies or peptides are to be tested, the cells are pre-incubated in suspension with the latter for 30 minutes at 37° C. 10^4 cells per bowl (96-bowl plate) are incubated in a volume of 50-100 μl for 1 hour at 37° C. […] The absorption at 595 nm is measured. […]

[6] = system: band with an apparent molecular weight of 120-130 kDa (receptor of the EDb-fibronectin domains); assay: affinity chromatography of cell lysate from surface-labeled human skin stromal cells; format: binding; details: Western Blot
Description: Method: The lysate is first put on the column three times.
EDTA-Elution: EDTA complexes the Ca and Mg ions. As a result, the endothelial-cell proteins are eluted, which require Ca and Mg for binding. 2×4 ml of EDTA-buffer is put on the column (or on both columns) and collected in two fractions (E1 and E2/BE1 and BE2) in Falcon tubes. Then, the tube contents are mixed, and […] is pipetted off into one (or two) Eppendorf vessel(s).
The fractions or pre-elution fractions that are thus obtained were separated with SDS-PAGE and subjected to a Western Blot under reducing conditions.
In the Western Blot shown in FIG. 11, traces 1-3 show the elution of an affinity column with Fn-7-8-9, while traces 4-6 show the elution of an affinity column of Fn-7-B-8-9. Traces 1 and 4 are pre-elution factors, while traces 2, 3 or 5, 6 show fractions 1 and 2 of the respective elution run.

[7] = biological target: T1, biontinylated protein with an apparent molecular weight of 120-130 kDa (receptor of the EDb-fibronectin domains) (Homo sapiens, UniProt P05556); assay: affinity chromatography of cell lysate from surface-labeled human skin endothelial cells; format: binding; details: proliferating endothelial cells; EDTA elution; SDS-PAGE, Western Blot
T1 construct: proliferating endothelial cells that are biotinylated on the cell surface were lysed with a detergent; endogenous in cells; host or cells: proliferating human skin endothelial cells, surface-biotinylated, lysed in CHAPS
T1 sequence (P05556 21-798): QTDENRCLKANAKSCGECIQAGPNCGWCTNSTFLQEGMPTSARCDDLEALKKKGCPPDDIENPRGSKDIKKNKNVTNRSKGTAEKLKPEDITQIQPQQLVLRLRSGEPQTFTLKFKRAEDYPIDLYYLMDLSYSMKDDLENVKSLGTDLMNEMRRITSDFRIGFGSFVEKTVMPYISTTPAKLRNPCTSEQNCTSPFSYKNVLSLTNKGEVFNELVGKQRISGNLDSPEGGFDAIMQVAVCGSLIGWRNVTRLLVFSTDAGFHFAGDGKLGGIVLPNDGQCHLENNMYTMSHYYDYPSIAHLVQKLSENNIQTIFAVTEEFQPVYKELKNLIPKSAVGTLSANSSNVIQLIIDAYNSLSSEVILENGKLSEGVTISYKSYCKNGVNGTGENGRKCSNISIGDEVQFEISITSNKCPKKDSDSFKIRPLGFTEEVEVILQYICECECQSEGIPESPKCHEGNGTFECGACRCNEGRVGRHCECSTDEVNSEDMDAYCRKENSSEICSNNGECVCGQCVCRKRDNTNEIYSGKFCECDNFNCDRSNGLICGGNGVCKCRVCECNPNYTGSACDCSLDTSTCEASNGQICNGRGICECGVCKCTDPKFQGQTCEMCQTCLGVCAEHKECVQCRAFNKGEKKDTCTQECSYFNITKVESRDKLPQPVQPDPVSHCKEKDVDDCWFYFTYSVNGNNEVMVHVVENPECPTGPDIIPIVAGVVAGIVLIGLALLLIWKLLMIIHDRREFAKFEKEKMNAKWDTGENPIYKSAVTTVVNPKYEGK
T1 sequence (P17301 30-1181 partner): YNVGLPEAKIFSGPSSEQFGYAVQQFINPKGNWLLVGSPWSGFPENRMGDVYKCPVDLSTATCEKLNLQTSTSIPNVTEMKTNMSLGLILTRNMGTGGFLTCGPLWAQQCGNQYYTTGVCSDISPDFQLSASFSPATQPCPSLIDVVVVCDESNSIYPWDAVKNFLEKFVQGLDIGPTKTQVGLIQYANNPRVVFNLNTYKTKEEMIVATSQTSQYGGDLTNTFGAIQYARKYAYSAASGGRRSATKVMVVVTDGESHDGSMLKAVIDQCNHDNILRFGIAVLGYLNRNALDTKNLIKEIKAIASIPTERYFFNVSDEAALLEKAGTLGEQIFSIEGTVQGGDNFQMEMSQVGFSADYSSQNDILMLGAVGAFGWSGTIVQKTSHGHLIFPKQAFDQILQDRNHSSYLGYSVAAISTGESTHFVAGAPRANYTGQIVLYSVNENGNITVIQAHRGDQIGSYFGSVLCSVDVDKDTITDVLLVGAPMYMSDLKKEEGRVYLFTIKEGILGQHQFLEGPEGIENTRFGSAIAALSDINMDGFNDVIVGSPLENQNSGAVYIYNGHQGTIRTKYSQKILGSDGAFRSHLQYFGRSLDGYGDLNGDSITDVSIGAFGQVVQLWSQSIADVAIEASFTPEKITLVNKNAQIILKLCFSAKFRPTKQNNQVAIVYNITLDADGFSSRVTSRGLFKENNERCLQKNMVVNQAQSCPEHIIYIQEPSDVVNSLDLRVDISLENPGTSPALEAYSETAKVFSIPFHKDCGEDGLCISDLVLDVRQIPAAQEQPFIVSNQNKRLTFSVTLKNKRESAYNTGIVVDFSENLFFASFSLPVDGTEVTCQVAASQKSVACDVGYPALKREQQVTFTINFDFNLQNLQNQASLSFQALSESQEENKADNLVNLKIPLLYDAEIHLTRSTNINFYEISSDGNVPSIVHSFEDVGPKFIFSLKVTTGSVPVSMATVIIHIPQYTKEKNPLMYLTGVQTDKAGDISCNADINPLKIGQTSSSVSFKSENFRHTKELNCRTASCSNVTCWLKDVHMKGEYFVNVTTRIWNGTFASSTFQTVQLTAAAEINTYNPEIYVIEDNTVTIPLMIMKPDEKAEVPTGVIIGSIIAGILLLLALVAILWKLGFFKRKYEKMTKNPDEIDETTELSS
Description: In this respect, proliferating endothelial cells that are biotinylated on the cell surface were lysed with a detergent and subjected to an affinity chromatography, in which short fragments of fibronectin were coupled to sepharose with or without the inserted EDb-fibronectin domains (with the EDb-fibronectin domains=Fn-7-B-8-9, without the EDb-fibronectin domains=Fn-7-8-9). […] The elution is carried out by means of EDTA. Several fractions, described below, were collected. The fractions were then subjected to SDS-PAGE and studied with Western Blot with streptavidin-peroxidase and chemiluminescence (ECL). Traces 1 and 5 show pre-elution fractions, while traces 2, 3, 4 or 6, 7, 8 show the eluted fractions 1, 2 and 3. Traces 1-4 show the chromatography with Fn-7-8-9, while traces 5-8 show the chromatography with Fn-7-B-8-9.
Method: The cell culture bottles are washed respectively 3 times with PBS w/Ca+Mg before and after the biotinylation. Before the last washing process, the biotin buffer (1 mg/15 ml of PBS) is prepared. Into each of the bottles, 5 ml of the buffer (for 225 cm^2) or 12.5 ml (500 cm^2 plates) is pipetted into the center of the bottom, so that the volume can disperse over the entire bottom of the bottle while swinging around. The first culture bottle is then treated with half of the lysis buffer volume. […]

Substance: 1: synthetic peptide, partial sequence of the EDb-fibronectin domains, SEQ ID NO: 1 (VDITDSSIGLRWTPL) [compound 1]
inhibition of adherence of endothelial cells to ED-B-coated plates [1]: inhibitory

Substance: 3: synthetic peptide, partial sequence of the EDb-fibronectin domains, SEQ ID NO: 3 (TGLEPGIDYDISVIT) [compound 3]
inhibition of adherence of endothelial cells to ED-B-coated plates [1]: inhibitory

Substance: ED-B: recombinant His-tagged EDb-fibronectin domain (type III repeat), expressed in E. coli
splintering of endothelial cells from spheroids ([2]; embedded in collagen, 10 μg/ml bFGF, 6 μg/ml ED-B): further stimulated; also recorded: significant increase in splintering | induction of capillary-like structures (tube formation); penetration of endothelial cells in collagen gels [2]: stimulates | proliferation of human stromal cells [3]: could not be increased | action on human endothelial cell proliferation ([4]; EC/collagen): not as significant as in the flattening-out on gelatin | action on human endothelial cell proliferation ([4]; EC/gelatin): action of ED-B on human endothelial cell proliferation could be determined | action on proliferation of cells (extinction at 490 nm) ([4]; absence of bFGF, MTS assay): no action | adhesion of endothelial cells to coated surfaces [5]: cells adhere

binding of 120-130 kDa surface protein to sepharose-coupled fragment [7]: binds specifically
Substance: Fn-7-B-8-9: recombinant fibronectin fragment with domains 7, EDb, 8 and 9
prominent 120-130 kDa band in eluate of affinity column [6]: cannot be determined

Substance: peptide No. 2: synthetic peptide derived from loop 5 of ED-B, SEQ ID NO: 2 (GYYTVTGLEPGIDYD)
induction of capillary-like structures (tube formation); penetration of endothelial cells in collagen gels [2]: maximum effect | inhibition of adherence of endothelial cells to ED-B-coated plates [1]: inhibitory
